The results in this text go back to PubChem BioAssay (NCI).

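The compound was tested at five concentrations on cells cultured in 96-well plates, with a 48-hour exposure period. At the GI50, growth is halved. TGI denotes the concentration required for complete inhibition of growth.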

Some test systems named below: MDA-MB-231 breast; HCC-2998 colon; OVCAR-5 ovarian; SF-268 CNS; COLO 205 colon; M14 melanoma; NCI-H23 lung; HCT-116 colon; SW-620 colon; HL-60(TB) leukemia.
Holding throughout (experiment): NCI anticancer screen, dose series, 48 h

Consider `CC(=O)OC1=CC2=CC[C@H]3[C@@H]4CCC(=O)[C@@]4(C)CC(=O)[C@]3(S)[C@@]2(C)CC1`, for which the TGI in the assay on MDA-MB-231 breast was 66.8 µM; in the assay with HCC-2998 colon it was 65.1 µM; with OVCAR-5 ovarian it was more than 100 µM; with SF-268 CNS, 89.6 µM; in the assay on COLO 205 colon it was more than 100 µM; in the assay on M14 melanoma, more than 100 µM. Moreover, the TGI is more than 100 µM in the assay on NCI-H23 lung, 49.3 µM in the assay on HCT-116 colon and more than 100 µM in the assay with SW-620 colon.
With `CC(C)(C)c1ccc(OC(=O)Nc2ccc(O)c(C(=O)O)c2)cc1`, the TGI in the assay with MDA-MB-231 breast, in the assay with OVCAR-5 ovarian, in the assay on SF-268 CNS, with COLO 205 colon, in the assay on HL-60(TB) leukemia and in the assay with M14 melanoma was more than 100 µM in each case. Besides, the TGI in the assay on NCI-H23 lung, in the assay on HCT-116 colon and in the assay on SW-620 colon was more than 100 µM in each case.
With `COc1ccc(S(=O)(=O)NC2=NCCN2C(=S)SN2CCn3c2nsc3=S)cc1`, the GI50 in the assay on MDA-MB-231 breast is 15 µM; in the assay with HCC-2998 colon, 21.4 µM; with OVCAR-5 ovarian, 17.3 µM; in the assay with SF-268 CNS it was 18 µM; in the assay on COLO 205 colon it was 11 µM; with M14 melanoma, 14.9 µM. In addition, the GI50 was 22.9 µM with NCI-H23 lung, 14.4 µM with HCT-116 colon and 14.1 µM in the assay with SW-620 colon. Also, the TGI amounted to 36.9 µM in the assay with MDA-MB-231 breast; 37.9 µM in the assay with HCC-2998 colon; 33.3 µM in the assay on OVCAR-5 ovarian; 37.8 µM with SF-268 CNS; 27.4 µM with COLO 205 colon; 31 µM in the assay on M14 melanoma. Further, the results for the TGI with NCI-H23 lung, in the assay on HCT-116 colon and in the assay with SW-620 colon were 55.7 µM, 27.9 µM and 27.8 µM, respectively.
For the compound `C=C1C(=O)O[C@H]2[C@H]1CC/C(COC(=O)CCSCCC(=O)OC/C1=C/CC[C@@]3(C)O[C@H]3[C@H]3OC(=O)C(=C)[C@@H]3CC1)=C\CC[C@@]1(C)O[C@@H]21`, the GI50 with MDA-MB-231 breast was 1.09 µM; with HCC-2998 colon, 1.89 µM; with OVCAR-5 ovarian, 2.11 µM; in the assay with SF-268 CNS it was 1.63 µM; in the assay with COLO 205 colon it was 0.558 µM; in the assay on M14 melanoma it was 1.52 µM. In addition, the GI50 in the assay with NCI-H23 lung is 1.89 µM; in the assay on HCT-116 colon, 0.206 µM; in the assay with SW-620 colon, 0.556 µM. Besides, the TGI with MDA-MB-231 breast is 2.55 µM; in the assay on HCC-2998 colon, 3.52 µM; in the assay on OVCAR-5 ovarian, 4.21 µM; with SF-268 CNS, 4.54 µM; in the assay with COLO 205 colon it was 1.97 µM; in the assay with M14 melanoma it was 3.35 µM. Further, the TGI worked out at 4.2 µM with NCI-H23 lung, 0.609 µM with HCT-116 colon and 2.02 µM in the assay with SW-620 colon.
Take `O=[N+]([O-])c1ccc(C2CC(c3ccccc3Cl)=Nc3ccccc3S2=O)cc1` (stereo unspecified): the TGI in the assay on MDA-MB-231 breast was determined as 5.29 µM; with HCC-2998 colon, 6.85 µM; in the assay on OVCAR-5 ovarian, 18.6 µM; in the assay on SF-268 CNS, 30.5 µM; in the assay on COLO 205 colon, 22.1 µM; in the assay with HL-60(TB) leukemia, 3.63 µM. For the same compound, the TGI was 20.7 µM with M14 melanoma, 11.7 µM in the assay on NCI-H23 lung, 3.49 µM with HCT-116 colon and 3.91 µM in the assay with SW-620 colon.
As for `N[C@@H]1C(=O)N2C(C(=O)OC(c3ccccc3)c3ccccc3)=C(CCl)CS[C@H]12`, the GI50 is 25.2 µM in the assay on MDA-MB-231 breast; 43 µM with HCC-2998 colon; 44.5 µM in the assay on OVCAR-5 ovarian; 31.7 µM in the assay with SF-268 CNS; 40.3 µM in the assay with COLO 205 colon; 2.46 µM with HL-60(TB) leukemia. For the same compound, the GI50 is 34.8 µM in the assay with M14 melanoma, 95.6 µM with NCI-H23 lung, 27.1 µM in the assay with HCT-116 colon and 36.6 µM in the assay with SW-620 colon. Also, the TGI in the assay with MDA-MB-231 breast was 63.1 µM; in the assay on HCC-2998 colon, more than 100 µM; with OVCAR-5 ovarian, more than 100 µM; in the assay on SF-268 CNS, 98.7 µM; in the assay on COLO 205 colon, more than 100 µM; with HL-60(TB) leukemia it was more than 38.3 µM. In addition, the TGI with M14 melanoma was more than 96.2 µM; with NCI-H23 lung it was more than 100 µM; in the assay on HCT-116 colon, more than 76.6 µM; in the assay on SW-620 colon it was more than 100 µM.
As to `O=C(O)C1CC2(C1)CC(C(=O)O)C2` (stereo unspecified), the TGI in the assay with MDA-MB-231 breast, in the assay on HCC-2998 colon, in the assay with OVCAR-5 ovarian, with COLO 205 colon, with M14 melanoma and in the assay with NCI-H23 lung was more than 100 µM each time. In addition, the TGI with HCT-116 colon and in the assay with SW-620 colon was more than 100 µM in each case.
In the case of `Nc1nc(N)c(C=Nc2ccc(Br)cc2)c(Nc2ccc(Br)cc2)n1`, the GI50 with MDA-MB-231 breast was 7.36 µM; with HCC-2998 colon, 3.89 µM; in the assay on OVCAR-5 ovarian, 9.98 µM; with SF-268 CNS, 8.16 µM; in the assay on COLO 205 colon, 14.5 µM; in the assay with HL-60(TB) leukemia it was 15.6 µM. For the same compound, the GI50 in the assay on M14 melanoma was 9.59 µM; with NCI-H23 lung, 10 µM; in the assay on HCT-116 colon, 6.46 µM; with SW-620 colon it was 14.1 µM. The TGI amounted to 28.3 µM in the assay with MDA-MB-231 breast; 14 µM in the assay with HCC-2998 colon; 21.5 µM in the assay with OVCAR-5 ovarian; 27.1 µM in the assay on SF-268 CNS; 34.6 µM in the assay on COLO 205 colon; 49.2 µM with HL-60(TB) leukemia. In addition, the TGI in the assay on M14 melanoma turned out to be 21.4 µM; in the assay with NCI-H23 lung, 27.3 µM; in the assay with HCT-116 colon, 19.2 µM; with SW-620 colon, 99.1 µM.
With `Oc1ccc(O)c(-c2cc(-c3ccc(Cl)cc3)nn2-c2ccccc2)c1`, the GI50 in the assay on MDA-MB-231 breast was 2.33 µM; with HCC-2998 colon it was 2.58 µM; in the assay with OVCAR-5 ovarian, 3.11 µM; with SF-268 CNS it was 2.71 µM; in the assay with HL-60(TB) leukemia, 5.71 µM; in the assay with M14 melanoma, 2.89 µM. The GI50 with NCI-H23 lung is 2.48 µM; with SW-620 colon, 3.81 µM. Besides, the TGI in the assay with MDA-MB-231 breast came out at 6.82 µM; with HCC-2998 colon it was 4.98 µM; in the assay on OVCAR-5 ovarian it was 10.7 µM; with SF-268 CNS it was 12.2 µM; in the assay with HL-60(TB) leukemia, 64.8 µM; in the assay on M14 melanoma, 6.53 µM. The TGI in the assay with NCI-H23 lung stood at 9.24 µM; with SW-620 colon, 18.4 µM.
As for `O=C(O)C1CCCCC1c1c2ccc(=O)c(O)c-2oc2c(O)c(O)ccc12` (stereo unspecified), the TGI with MDA-MB-231 breast was 38.1 µM; in the assay with OVCAR-5 ovarian, more than 100 µM; in the assay with SF-268 CNS, more than 100 µM; in the assay with COLO 205 colon it was more than 100 µM; with HL-60(TB) leukemia, 65.2 µM; in the assay on M14 melanoma, more than 100 µM. The TGI in the assay on HCT-116 colon worked out at 28.4 µM; in the assay on SW-620 colon, 47.7 µM.
